The values below come from ChEMBL document CHEMBL1130824, “The novel cyclopropapyrroloindole(CPI) bisalkylators bearing methoxycarbonyl and trifluoromethyl groups” (Bioorg Med Chem Lett, 1998).

The test system of one assay is HeLa. Kind of assay: Concentration required to inhibit the growth of HeLaS3 cells. Format: functional, cell-based, Homo sapiens.
The subject of assay [1] is Colon 26. Put plainly: Compound was tested for antitumor activity against colon 26 murine adenocarcinoma infected CDF1 mice when administered at a dose of 0.977 ug/Kg intravenously. Conditions: Mus musculus, Colon 26, iv; read-out: TGI. Format: functional.
For assay [2], the system named is Colon 26. Put plainly: Compound was tested for antitumor activity against colon 26 murine adenocarcinoma infected CDF1 mice when administered at a dose of 15.6 ug/Kg intravenously. Format: functional. Conditions: Mus musculus, Colon 26, iv; read-out: TGI.
The test system of assay [3] is Colon 26. Put plainly: Compound was tested for antitumor activity against colon 26 murine adenocarcinoma infected CDF1 mice when administered at a dose of 31.3 ug/Kg intravenously. Format: functional. Conditions: Mus musculus, Colon 26, iv; read-out: TGI.
For assay [4], the system named is Colon 26. Put plainly: Compound was tested for antitumor activity against colon 26 murine adenocarcinoma infected CDF1 mice when administered at a dose of 4000 ug/Kg intravenously. Format: functional. Conditions: Mus musculus, Colon 26, iv; read-out: TGI.
Where [5] appears, read: Homo sapiens, HeLa, read-out: IC50.

Structures are written as SMILES. In brackets after ≈: the same amount, converted by molar mass.

In the case of `COC(=O)c1c(C(F)(F)F)[nH]c2c(O)cc3c(c12)[C@H](CCl)CN3C(=O)c1cc2cc(-c3ccc4[nH]c(C(=O)N5C[C@@H](CCl)c6c5cc(O)c5[nH]c(C(F)(F)F)c(C(=O)OC)c65)cc4c3)ccc2[nH]1`, the IC50 – broadly, the concentration that gives 50% inhibition – in the assay with HeLa (hela) came to 0.0049 ng/mL (≈ 0.00499 nM). Also, the inhibition in vivo at 0.000977 mg/kg in the assay with Colon 26 [1] stood at 84%.
For the compound `COC(=O)c1c(C(F)(F)F)[nH]c2c(O)cc3c(c12)[C@H](CCl)CN3C(=O)c1cc2cc(NC(=O)Nc3ccc4[nH]c(C(=O)N5C[C@@H](CCl)c6c5cc(O)c5[nH]c(C(F)(F)F)c(C(=O)OC)c65)cc4c3)ccc2[nH]1`, the IC50 with HeLa (setting [5]) is 0.091 ng/mL (≈ 0.0875 nM). Further, the inhibition in vivo at 0.0156 mg/kg in the assay on Colon 26 [2] was 94%.
For `COC(=O)c1c(C(F)(F)F)[nH]c2c(O)cc3c(c12)[C@H](CCl)CN3C(=O)c1cc2cc(CCc3ccc4[nH]c(C(=O)N5C[C@@H](CCl)c6c5cc(O)c5[nH]c(C(F)(F)F)c(C(=O)OC)c65)cc4c3)ccc2[nH]1`, the inhibition in vivo at 0.0313 mg/kg in the assay on Colon 26 [3] was 87%. Besides, the half-maximal inhibitory concentration (IC50) with HeLa (setting [5]) was determined as 0.21 ng/mL (≈ 0.208 nM).
For `COC(=O)c1c(C(F)(F)F)[nH]c2c(O)cc3c(c12)[C@H](CCl)CN3C(=O)c1cc2cc(C#Cc3ccc4[nH]c(C(=O)N5C[C@@H](CCl)c6c5cc(O)c5[nH]c(C(F)(F)F)c(C(=O)OC)c65)cc4c3)ccc2[nH]1`, in that order: 82% and 0.35 ng/mL (≈ 0.348 nM).
`COC(=O)c1c(C(F)(F)F)[nH]c2c(O)cc3c(c12)[C@H](CCl)CN3C(=O)c1cc2cc(Cc3ccc4[nH]c(C(=O)N5C[C@@H](CCl)c6c5cc(O)c5[nH]c(C(F)(F)F)c(C(=O)OC)c65)cc4c3)ccc2[nH]1`: in the assay on HeLa (setting [5]), the IC50 is 33 ng/mL (≈ 33.1 nM). In the assay with Colon 26 [4], the inhibition in vivo at 4 mg/kg is 80%.
The matching figures for `COC(=O)c1c(C(F)(F)F)[nH]c2c(O)cc3c(c12)[C@H](CCl)CN3C(=O)c1cc2cc(Oc3ccc4[nH]c(C(=O)N5C[C@@H](CCl)c6c5cc(O)c5[nH]c(C(F)(F)F)c(C(=O)OC)c65)cc4c3)ccc2[nH]1`: 22 ng/mL (≈ 22.1 nM) and 88%.
As to `Cc1c[nH]c2c(O)cc3c(c12)[C@H](CCl)CN3C(=O)c1cc2cc(NC(=O)Nc3ccc4[nH]c(C(=O)N5C[C@@H](CCl)c6c5cc(O)c5[nH]cc(C)c65)cc4c3)ccc2[nH]1` [BIZELESIN], the IC50 in the assay on HeLa (setting [5]) stood at 0.06 ng/mL (≈ 0.0736 nM). For the same compound, the inhibition in vivo at 0.0156 mg/kg in the assay with Colon 26 [2] is 90%.
